From publication PMC10147046, “Assessment of Various Food Proteins as Structural Materials for Delivery of Hydrophobic Polyphenols Using a Novel Co-Precipitation Method” (Molecules, 2023)
Values after ≈ are worked out from the molar mass of the structure shown.

Columns and labels:
[1] = Solubility of the powders in water (phosphate buffer), HPLC quantification; assay type: physicochemical; settings: for solubility at 24 h: aqueous buffer, thermodynamic from solid; for Increase in solubility of co-precipitate compared to intrinsic (untreated) solubility: polyphenol co-precipitated with protein and trehalose vs untreated, phosphate buffer pH 7.0
Procedure: To measure the amount of the polyphenol entrapped inside the NaCas, SPI, and WPI precipitates (entrapment efficiency), the concentration of each polyphenol in the supernatants was determined by high-performance liquid chromatography (HPLC) following different methods (depending on the polyphenol). The HPLC instrument was equipped with a UV/visible diode array detector (Agilent Technologies, 1200 Series, Santa Clara, CA, USA). The column was a reverse-phase PrevailTM C18 with dimensions of 4.6 cm × 150 mm and 5 µm particle size (Grace Alltech, Columbia, MD, USA). The composition and conditions of the mobile phase varied based on the method used for the quantification of each polyphenol. […] The sample injection volume for all cases was 20 µL. Different polyphenols were detected at different wavelengths and different retention times; e.g., naringenin and rutin were detected at 10.15 and 4.8 min, respectively. For the calibration of the HPLC column and quantification of each polyphenol in the samples, standard solutions of various concentrations of pure polyphenols (94 to 98%) in the mobile phase were used. […] Thermo Scientific, Waltham, MA, USA) before injecting them into the HPLC column. […] The dispersibility of the lyophilized powders and the untreated samples was measured according to the method from Ji et al.. For this purpose, we used a Malvern Mastersizer 2000 (Malvern Instruments Ltd., Worcestershire, UK), which was equipped with a 4 mW He–Ne laser operating apparatus. […] To avoid artifacts (large lumps) from the initial dispersion, the Time 0 min measurement was removed, and the data from 2 to 60 min were collected. A separate normalization was applied to the obscuration indices across the dispersion period for each sample by dividing each index by the maximum index. Finally, the volume distribution data were multiplied by the normalized obscuration index at each time point.

[2] = Dispersibility in water: particle size distribution over time (Malvern Mastersizer 2000); assay type: physicochemical; settings: for Particle size reached over time, WPI co-precipitates: over 60 min; for Particle size after treatment in the absence of trehalose: polyphenol precipitate without protein and without trehalose; for Size of additional significant particle population after treatment: distribution at least bi-modal; for Dispersibility of untreated polyphenol: untreated powder, phosphate buffer pH 7.0, over 60 min
Procedure: The particle size distribution of untreated (control) polyphenols vs. the polyphenols co-precipitated with NaCas, SPI, and WPI after dispersion in phosphate buffer (pH 7.0) is presented in Figure 4. As stated in Section 3.6, in the case of the current research, we measured dispersibility based on the decrease in the size of particles dispersed in the aqueous medium over time.
The dispersibility of the lyophilized powders and the untreated samples was measured according to the method from Ji et al.. For this purpose, we used a Malvern Mastersizer 2000 (Malvern Instruments Ltd., Worcestershire, UK), which was equipped with a 4 mW He–Ne laser operating apparatus. To start with, about 30 mg of each powder was added to the dispersion unit containing phosphate buffer (10 mM NaH2PO4, pH 7.0), and this mixture was stirred (2000 rpm) for 60 min. The particle size distribution obscuration values of each sample were read at 2 min intervals and a wavelength of 632.8 nm. To avoid artifacts (large lumps) from the initial dispersion, the Time 0 min measurement was removed, and the data from 2 to 60 min were collected. A separate normalization was applied to the obscuration indices across the dispersion period for each sample by dividing each index by the maximum index. Finally, the volume distribution data were multiplied by the normalized obscuration index at each time point.

[3] = source not given; cited from earlier work
[4] = design: method as in PMID 30724197; settings: cited from earlier work
[5] = design: method as in PMID 35056844; settings: rutin dissolved in solution maintained at pH 11.0 for 30 min; cited from earlier work
[6] = reference compounds of Table 1; one cell merged over all four solubility columns; no source or measurement printed; cited from earlier work
[7] = untreated (commercial) polyphenol, phosphate buffer pH 7.0, 25 °C
[8] = polyphenol precipitate without protein, absence of trehalose

For `O=C1C[C@@H](c2ccc(O)cc2)Oc2cc(O)cc(O)c21` [Naringenin, (S)-naringenin], the solubility at 24 h [1, 7] was 2 µg/mL (≈ 7.35 µM), the “Particle size reached over time, WPI co-precipitates” value [2] was “less than 1 μm” and the “Particle size after treatment in the absence of trehalose” value [2] was ~ 6 μm. The Size of additional significant particle population after treatment [2, 8] was roughly 0.1 µm, the “Dispersibility of untreated polyphenol” value [2] was “None of the untreated forms of rutin, naringenin, hesperidin, and curcumin (Figure 4) showed any significant dispersibility over 60 min” and the Solubility in ethanol [3] was roughly 1000 µg/mL (≈ 3670 µM).

With Curcumin the “Increase in solubility of co-precipitate compared to intrinsic (untreated) solubility” value [1] was roughly 10 fold, the “Solubility (Untreated)” value [1, 7] was 8 µg/mL and the “Size of minor particle population after treatment” value [2, 8] was ~ 160 μm. For the same compound, the “Dispersibility of untreated polyphenol” value [2] was “None of the untreated forms of rutin, naringenin, hesperidin, and curcumin (Figure 4) showed any significant dispersibility over 60 min” and the Solubility in ethanol [3] was roughly 10000 µg/mL.

In the case of `O=c1c(-c2ccc(O)cc2)coc2cc(O)ccc12` [daidzein], the “Enhancement of daidzein solubility” value ([4]; WPI nanoparticles formed in the presence of daidzein) is given as “at least 2 fold” and the Stability ([4]; WPI-daidzein nanoparticles, 4 °C) is given as “stable at 4 °C for at least two months”.

In the case of `COc1ccc([C@@H]2CC(=O)c3c(O)cc(O[C@@H]4O[C@H](CO[C@@H]5O[C@@H](C)[C@H](O)[C@@H](O)[C@H]5O)[C@@H](O)[C@H](O)[C@H]4O)cc3O2)cc1O` [Hesperidin], the solubility at 24 h [1, 7] is reported as 2 µg/mL (≈ 3.28 µM), the “Particle size after treatment in the absence of trehalose” value [2] is reported as 30 μm and the “Particle size, untreated polyphenol” value ([2]; untreated powder dispersed in phosphate buffer) is reported as ~ 60 μm. For the same compound, the “Dispersibility of untreated polyphenol” value [2] was “None of the untreated forms of rutin, naringenin, hesperidin, and curcumin (Figure 4) showed any significant dispersibility over 60 min” and the Solubility in ethanol [3] was roughly 1000 µg/mL (≈ 1640 µM).

With `C[C@@H]1O[C@@H](OC[C@H]2O[C@@H](Oc3c(-c4ccc(O)c(O)c4)oc4cc(O)cc(O)c4c3=O)[C@H](O)[C@@H](O)[C@@H]2O)[C@H](O)[C@H](O)[C@H]1O` [Rutin] the solubility at 24 h [1, 7] was 110 µg/mL (≈ 180 µM), the “Particle size reached over time, WPI co-precipitates” value [2] was “less than 1 μm” and the “Size of smaller particles favoured over time, NaCas co-precipitate” value ([2]; co-precipitate with NaCas, redistribution of particle size over time) was 0.1 μm. The Size of additional significant particle population after treatment [2, 8] was roughly 0.1 µm, the “Effect of treatment (no protein) on dispersibility” value ([2]; treated polyphenol precipitates with or without trehalose) was “Treatment improved the dispersibility only of rutin” and the “Dispersibility of untreated polyphenol” value [2] was “None of the untreated forms of rutin, naringenin, hesperidin, and curcumin (Figure 4) showed any significant dispersibility over 60 min”. For the same compound, the Solubility in ethanol [3] was “about 4 mg/mL” and the Degradation [5] was “approximately 10%”.

In the case of `Oc1ccc(-c2ccc(O)cc2O)c(O)c1` [[1,1′-Biphenyl]-2,2′,4,4′-tetrol], the “Solubility (reference compounds, in words)” value [6] is listed as “low?”.

For `Oc1cc(O)c2c(c1)O[C@H](c1ccc(O)c(O)c1)[C@@H](O)C2` [Catechin, (+)-catechin], the solubility at 24 h [1, 7] was 1.5 µg/mL (≈ 5.17 µM), the “Increase in solubility of co-precipitate compared to intrinsic (untreated) solubility” value [1] was roughly 10 fold and the Size of additional significant particle population after treatment [2, 8] was roughly 0.1 µm. For the same compound, the “Dispersibility of untreated polyphenol” value [2] was “showed some dispersibility” and the Solubility in ethanol [3] was roughly 100000 µg/mL (≈ 345000 µM).
